Results from ChEMBL document CHEMBL3885881, “DrugMatrix”.

Species: Rattus norvegicus
Assay: DrugMatrix - Regimen: Daily Repeat
Type: toxicity, organism-based, Sprague-Dawley
Parameters: regimen Daily Repeat, gender Male, age 6-8 weeks
Details: in vivo, po, route oral GAVAGE, vehicle .5 % CMC; for BASOPHIL / EOSINOPHIL / ERYTHROCYTE COUNT / HEMATOCRIT / HEMOGLOBIN / LEUKOCYTE COUNT / LYMPHOCYTE / MEAN CORPUSCULAR HEMOGLOBIN / MEAN CORPUSCULAR HEMOGLOBIN CONCENTRATION / MEAN CORPUSCULAR VOLUME / MONOCYTE / NEUTROPHIL / PLATELET COUNT: tissue Blood; for ALANINE AMINOTRANSFERASE / ALBUMIN / ALKALINE PHOSPHATASE / ASPARTATE AMINOTRANSFERASE / BLOOD UREA NITROGEN / CHLORIDE / CHOLESTEROL / CREATINE PHOSPHOKINASE / CREATININE / GLUCOSE / PHOSPHORUS / POTASSIUM / SODIUM / TOTAL PROTEIN: tissue Plasma
[1] = 0 mg/kg, 72 h, dose level Control, time 3 day
[2] = 0 mg/kg, 120 h, dose level Control, time 5 day
[3] = 28 mg/kg, 72 h, dose level Low, time 3 day
[4] = 28 mg/kg, 120 h, dose level Low, time 5 day
[5] = 2000 mg/kg, 72 h, dose level High, time 3 day
[6] = 2000 mg/kg, 120 h, dose level High, time 5 day

Question: What does the source list for CCN1CCN(c2cc3c(cc2F)c(=O)c(C(=O)O)cn3C2CC2)CC1 [ENROFLOXACIN]?
Answer: BASOPHIL [1]: 0%; EOSINOPHIL [1]: 0.4%; ERYTHROCYTE COUNT [1]: 6.43 x10E6/uL; HEMATOCRIT [1]: 37.36%; HEMOGLOBIN [1]: 13.98 G/DL; LEUKOCYTE COUNT [1]: 13 x10E3/uL; LYMPHOCYTE [1]: 81.4%; MEAN CORPUSCULAR HEMOGLOBIN [1]: 21.9 pg; MEAN CORPUSCULAR HEMOGLOBIN CONCENTRATION [1]: 37.4 G/DL; MEAN CORPUSCULAR VOLUME [1]: 58.52 fL; MONOCYTE [1]: 0.4%; NEUTROPHIL [1]: 18%; PLATELET COUNT [1]: 1386 x10E3/uL; ALANINE AMINOTRANSFERASE [1]: 39.33 u/L; ALBUMIN [1]: 3.57 G/DL; ALKALINE PHOSPHATASE [1]: 283.83 u/L; ASPARTATE AMINOTRANSFERASE [1]: 69.5 u/L; BLOOD UREA NITROGEN [1]: 14.83 mg/dL; CHLORIDE [1]: 107.33 MEQ/L; CHOLESTEROL [1]: 75.17 mg/dL; CREATINE PHOSPHOKINASE [1]: 107.67 u/L; CREATININE [1]: 0.48 mg/dL; GLUCOSE [1]: 172.5 mg/dL; PHOSPHORUS [1]: 10.48 mg/dL; POTASSIUM [1]: 6.9 MEQ/L; SODIUM [1]: 152.33 MEQ/L; TOTAL PROTEIN [1]: 5.9 G/DL; BASOPHIL [2]: 0%; EOSINOPHIL [2]: 0.4%; ERYTHROCYTE COUNT [2]: 6.96 x10E6/uL; HEMATOCRIT [2]: 41.12%; HEMOGLOBIN [2]: 15.24 G/DL; LEUKOCYTE COUNT [2]: 11.06 x10E3/uL; LYMPHOCYTE [2]: 88.6%; MEAN CORPUSCULAR HEMOGLOBIN [2]: 21.96 pg; MEAN CORPUSCULAR HEMOGLOBIN CONCENTRATION [2]: 37.1 G/DL; MEAN CORPUSCULAR VOLUME [2]: 59.12 fL; MONOCYTE [2]: 0.2%; NEUTROPHIL [2]: 10.8%; PLATELET COUNT [2]: 1155.8 x10E3/uL; ALANINE AMINOTRANSFERASE [2]: 36.33 u/L; ALBUMIN [2]: 3.72 G/DL; ALKALINE PHOSPHATASE [2]: 340.33 u/L; ASPARTATE AMINOTRANSFERASE [2]: 68.33 u/L; BLOOD UREA NITROGEN [2]: 15 mg/dL; CHLORIDE [2]: 108.17 MEQ/L; CHOLESTEROL [2]: 74.67 mg/dL; CREATINE PHOSPHOKINASE [2]: 110.67 u/L; CREATININE [2]: 0.47 mg/dL; GLUCOSE [2]: 171.33 mg/dL; PHOSPHORUS [2]: 10.05 mg/dL; POTASSIUM [2]: 6.7 MEQ/L; SODIUM [2]: 155.5 MEQ/L; TOTAL PROTEIN [2]: 6.33 G/DL; BASOPHIL [3]: 0%; EOSINOPHIL [3]: 0.33%; ERYTHROCYTE COUNT [3]: 6.63 x10E6/uL; HEMATOCRIT [3]: 40.9%; HEMOGLOBIN [3]: 15.27 G/DL; LEUKOCYTE COUNT [3]: 15.3 x10E3/uL; LYMPHOCYTE [3]: 87.67%; MEAN CORPUSCULAR HEMOGLOBIN [3]: 23.03 pg; MEAN CORPUSCULAR HEMOGLOBIN CONCENTRATION [3]: 37.33 G/DL; MEAN CORPUSCULAR VOLUME [3]: 61.73 fL; MONOCYTE [3]: 0.33%; NEUTROPHIL [3]: 11.67%; PLATELET COUNT [3]: 1320.33 x10E3/uL; ALANINE AMINOTRANSFERASE [3]: 35.67 u/L; ALBUMIN [3]: 3.53 G/DL; ALKALINE PHOSPHATASE [3]: 256 u/L; ASPARTATE AMINOTRANSFERASE [3]: 57 u/L; BLOOD UREA NITROGEN [3]: 14 mg/dL; CHLORIDE [3]: 106.67 MEQ/L; CHOLESTEROL [3]: 68.67 mg/dL; CREATINE PHOSPHOKINASE [3]: 123 u/L; CREATININE [3]: 0.5 mg/dL; GLUCOSE [3]: 170 mg/dL; PHOSPHORUS [3]: 11.27 mg/dL; POTASSIUM [3]: 6.83 MEQ/L; SODIUM [3]: 151.67 MEQ/L; TOTAL PROTEIN [3]: 5.93 G/DL; BASOPHIL [4]: 0%; EOSINOPHIL [4]: 0.67%; ERYTHROCYTE COUNT [4]: 7.38 x10E6/uL; HEMATOCRIT [4]: 43.67%; HEMOGLOBIN [4]: 15.73 G/DL; LEUKOCYTE COUNT [4]: 15.77 x10E3/uL; LYMPHOCYTE [4]: 91%; MEAN CORPUSCULAR HEMOGLOBIN [4]: 21.23 pg; MEAN CORPUSCULAR HEMOGLOBIN CONCENTRATION [4]: 35.97 G/DL; MEAN CORPUSCULAR VOLUME [4]: 58.97 fL; MONOCYTE [4]: 0%; NEUTROPHIL [4]: 8.33%; PLATELET COUNT [4]: 1186 x10E3/uL; ALANINE AMINOTRANSFERASE [4]: 39 u/L; ALBUMIN [4]: 3.77 G/DL; ALKALINE PHOSPHATASE [4]: 351 u/L; ASPARTATE AMINOTRANSFERASE [4]: 67.67 u/L; BLOOD UREA NITROGEN [4]: 13.67 mg/dL; CHLORIDE [4]: 115 MEQ/L; CHOLESTEROL [4]: 67.33 mg/dL; CREATINE PHOSPHOKINASE [4]: 110 u/L; CREATININE [4]: 0.6 mg/dL; GLUCOSE [4]: 194.33 mg/dL; PHOSPHORUS [4]: 10 mg/dL; POTASSIUM [4]: 6.77 MEQ/L; SODIUM [4]: 161.67 MEQ/L; TOTAL PROTEIN [4]: 6.37 G/DL; BASOPHIL [5]: 0%; EOSINOPHIL [5]: 0%; ERYTHROCYTE COUNT [5]: 6.71 x10E6/uL; HEMATOCRIT [5]: 40.2%; HEMOGLOBIN [5]: 15 G/DL; LEUKOCYTE COUNT [5]: 9.93 x10E3/uL; LYMPHOCYTE [5]: 94%; MEAN CORPUSCULAR HEMOGLOBIN [5]: 22.37 pg; MEAN CORPUSCULAR HEMOGLOBIN CONCENTRATION [5]: 37.33 G/DL; MEAN CORPUSCULAR VOLUME [5]: 59.87 fL; MONOCYTE [5]: 0.33%; NEUTROPHIL [5]: 5.67%; PLATELET COUNT [5]: 1314.33 x10E3/uL; ALANINE AMINOTRANSFERASE [5]: 34 u/L; ALBUMIN [5]: 3.4 G/DL; ALKALINE PHOSPHATASE [5]: 233.33 u/L; ASPARTATE AMINOTRANSFERASE [5]: 47.33 u/L; BLOOD UREA NITROGEN [5]: 13.33 mg/dL; CHLORIDE [5]: 107.67 MEQ/L; CHOLESTEROL [5]: 72.67 mg/dL; CREATINE PHOSPHOKINASE [5]: 92.33 u/L; CREATININE [5]: 0.67 mg/dL; GLUCOSE [5]: 183.33 mg/dL; PHOSPHORUS [5]: 11.5 mg/dL; POTASSIUM [5]: 7.2 MEQ/L; SODIUM [5]: 152.67 MEQ/L; TOTAL PROTEIN [5]: 5.53 G/DL; BASOPHIL [6]: 0%; EOSINOPHIL [6]: 0%; ERYTHROCYTE COUNT [6]: 7.19 x10E6/uL; HEMATOCRIT [6]: 42.1%; HEMOGLOBIN [6]: 14.8 G/DL; LEUKOCYTE COUNT [6]: 14.2 x10E3/uL; LYMPHOCYTE [6]: 97.67%; MEAN CORPUSCULAR HEMOGLOBIN [6]: 20.57 pg; MEAN CORPUSCULAR HEMOGLOBIN CONCENTRATION [6]: 35.17 G/DL; MEAN CORPUSCULAR VOLUME [6]: 58.63 fL; MONOCYTE [6]: 0%; NEUTROPHIL [6]: 2.33%; PLATELET COUNT [6]: 1312.33 x10E3/uL; ALANINE AMINOTRANSFERASE [6]: 39 u/L; ALBUMIN [6]: 3.43 G/DL; ALKALINE PHOSPHATASE [6]: 266 u/L; ASPARTATE AMINOTRANSFERASE [6]: 50 u/L; BLOOD UREA NITROGEN [6]: 11.67 mg/dL; CHLORIDE [6]: 104 MEQ/L; CHOLESTEROL [6]: 56 mg/dL; CREATINE PHOSPHOKINASE [6]: 95.33 u/L; CREATININE [6]: 0.6 mg/dL; GLUCOSE [6]: 152.67 mg/dL; PHOSPHORUS [6]: 11.4 mg/dL; POTASSIUM [6]: 6.03 MEQ/L; SODIUM [6]: 150.67 MEQ/L; TOTAL PROTEIN [6]: 5.53 G/DL
